Data from patent US6809065B2, “Herbicide containing substituted pyrazole derivative as active ingredient” (SDS Biotech K.K., priority 2001, dated 2004).

Experiments:
Chenopodium album [1] = assay: Upland field foliage treatment (Test Example 1); assay type: in vivo; conditions: foliage treatment 14th day after sowing, wettable powder, 1 kg active ingredient per hectare, evaluated 21st day after application
Procedure, shortened: (§1)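 Foliar spray, 1 kg a.i./ha, wettable powder in water, applied 14 d post-sowing; seeds covered by ~1 cm upland soil. Index scoring at 21 d. Higher index = stronger weed control; for crops, lower index = greater safety.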

Digitaria adscendens [2] = assay: Upland field foliage treatment (Test Example 1); assay type: in vivo; conditions: foliage treatment 14th day after sowing, wettable powder, 1 kg active ingredient per hectare, evaluated 21st day after application
Procedure, shortened: as §1

Setaria viridis [3] = assay: Upland field foliage treatment (Test Example 1); assay type: in vivo; conditions: foliage treatment 14th day after sowing, wettable powder, 1 kg active ingredient per hectare, evaluated 21st day after application
Procedure, shortened: as §1

Stellaria media [4] = assay: Upland field foliage treatment (Test Example 1); assay type: in vivo; conditions: foliage treatment 14th day after sowing, wettable powder, 1 kg active ingredient per hectare, evaluated 21st day after application
Procedure, shortened: as §1

soybean (Glycine max) [5] = assay: Upland field foliage treatment (Test Example 1), crop; assay type: in vivo; conditions: foliage treatment 14th day after sowing, 1 kg active ingredient per hectare, evaluated 21st day, lower index = higher safety
Procedure, shortened: as §1

[6] = test system: wheat (Triticum aestivum); assay: as above; assay type: in vivo; conditions: foliage treatment 14th day after sowing, 1 kg active ingredient per hectare, evaluated 21st day, lower index = higher safety
Procedure, shortened: as §1

Chenopodium album [7] = assay: Upland soil treatment (Test Example 2); assay type: in vivo; conditions: soil surface treatment next day after sowing, wettable powder, 1 kg active ingredient per hectare, evaluated 21st day after application
Procedure, shortened: (§2)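 Scores were assigned 21 days after treatment on an index where higher means stronger weed control and, for crops, lower means greater safety. A wettable-powder formulation at 1 kg a.i./ha was applied to the soil surface one day after sowing seeds under about 1 cm of upland soil.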

Digitaria adscendens [8] = assay: Upland soil treatment (Test Example 2); assay type: in vivo; conditions: soil surface treatment next day after sowing, wettable powder, 1 kg active ingredient per hectare, evaluated 21st day after application
Procedure, shortened: as §2

Setaria viridis [9] = assay: Upland soil treatment (Test Example 2); assay type: in vivo; conditions: soil surface treatment next day after sowing, wettable powder, 1 kg active ingredient per hectare, evaluated 21st day after application
Procedure, shortened: as §2

Stellaria media [10] = assay: Upland soil treatment (Test Example 2); assay type: in vivo; conditions: soil surface treatment next day after sowing, wettable powder, 1 kg active ingredient per hectare, evaluated 21st day after application
Procedure, shortened: as §2

soybean (Glycine max) [11] = assay: Upland soil treatment (Test Example 2), crop; assay type: in vivo; conditions: soil surface treatment next day after sowing, 1 kg active ingredient per hectare, evaluated 21st day, lower index = higher safety
Procedure, shortened: as §2

[12] = test system: wheat (Triticum aestivum); assay: Upland soil treatment (Test Example 2), crop; assay type: in vivo; conditions: soil surface treatment next day after sowing, 1 kg active ingredient per hectare, evaluated 21st day, lower index = higher safety
Procedure, shortened: as §2

Echinochloa spp. = assay: Paddy field treatment (Test Example 3); assay type: in vivo, Echinochloa crusgalli; conditions: paddy pot, submerged 4 cm, dropped on water surface 10th day after transplantation, 1 kg active ingredient per hectare, evaluated 21st day
Procedure, shortened: (§3)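 Paddy soil in pots was puddled and flooded to 4 cm, weeds were sown, and two-leaf Koshihikari rice was transplanted at 3 cm depth. Ten days after transplanting, wettable powder was applied onto the water surface at 1 kg active ingredient per hectare. Herbicidal effect was index-scored 21 days later.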

Ammannia multiflora = assay: Paddy field treatment (Test Example 3); assay type: in vivo; conditions: paddy pot, submerged 4 cm, dropped on water surface 10th day after transplantation, 1 kg active ingredient per hectare, evaluated 21st day
Procedure, shortened: as §3

Monochoria vaginalis = assay: Paddy field treatment (Test Example 3); assay type: in vivo; conditions: paddy pot, submerged 4 cm, dropped on water surface 10th day after transplantation, 1 kg active ingredient per hectare, evaluated 21st day
Procedure, shortened: as §3

Scirpus juncoides = assay: Paddy field treatment (Test Example 3); assay type: in vivo; conditions: paddy pot, submerged 4 cm, dropped on water surface 10th day after transplantation, 1 kg active ingredient per hectare, evaluated 21st day
Procedure, shortened: as §3

[13] = test system: rice (Oryza sative, variety: Koshihikari); assay: Paddy field treatment (Test Example 3), crop; assay type: in vivo, Oryza sativa; conditions: transplanted rice two-leaf period, water surface treatment 10th day after transplantation, 1 kg active ingredient per hectare, evaluated 21st day, lower index = higher safety
Procedure, shortened: as §3

Row | SMILES | Herbicidal activity Chenopodium album (Chenopodium album [1]) | Herbicidal activity Digitaria adscendens (Digitaria adscendens [2]) | Herbicidal activity Setaria viridis (Setaria viridis [3]) | Herbicidal activity Stellaria media (Stellaria media [4]) | Herbicidal activity Glycine max (soybean (Glycine max) [5]) | Herbicidal activity Triticum aestivum [6] | Herbicidal activity Chenopodium album (Chenopodium album [7]) | Herbicidal activity Digitaria adscendens (Digitaria adscendens [8]) | Herbicidal activity Setaria viridis (Setaria viridis [9]) | Herbicidal activity Stellaria media (Stellaria media [10]) | Herbicidal activity Glycine max (soybean (Glycine max) [11]) | Herbicidal activity Triticum aestivum [12] | Herbicidal activity Echinochloa spp. (Echinochloa spp.) | Herbicidal activity Ammannia multiflora (Ammannia multiflora) | Herbicidal activity Monochoria vaginalis (Monochoria vaginalis) | Herbicidal activity Scirpus juncoides (Scirpus juncoides) | Herbicidal activity Oryza sativa [13]
1 | COC=C(Cn1nc(-c2cc(Cl)cc(Cl)c2)c(Br)c1C)C(=O)OC [Compound 32] | 4 (herbicidal effect of not less than 70% by weight and less than 90% by weight) | 4 (herbicidal effect of not less than 70% by weight and less than 90% by weight) | 4 (herbicidal effect of not less than 70% by weight and less than 90% by weight) | 4 (herbicidal effect of not less than 70% by weight and less than 90% by weight) | 0 (herbicidal effect of not less than 0% by weight and less than 10% by weight) | 0 (herbicidal effect of not less than 0% by weight and less than 10% by weight) | 4 (herbicidal effect of not less than 70% by weight and less than 90% by weight) | 4 (herbicidal effect of not less than 70% by weight and less than 90% by weight) | 4 (herbicidal effect of not less than 70% by weight and less than 90% by weight) | 4 (herbicidal effect of not less than 70% by weight and less than 90% by weight) | 0 (herbicidal effect of not less than 0% by weight and less than 10% by weight) | 0 (herbicidal effect of not less than 0% by weight and less than 10% by weight) | 3 (herbicidal effect of not less than 50% by weight and less than 70% by weight) | 3 (herbicidal effect of not less than 50% by weight and less than 70% by weight) | 3 (herbicidal effect of not less than 50% by weight and less than 70% by weight) | 3 (herbicidal effect of not less than 50% by weight and less than 70% by weight) | 0 (herbicidal effect of not less than 0% by weight and less than 10% by weight)
2 | COC=C(Cn1cc(C)c(-c2ccc(F)cc2)n1)C(=O)OC [Compound 14] | 5 (herbicidal effect of not less than 90% by weight) | 5 (herbicidal effect of not less than 90% by weight) | 5 (herbicidal effect of not less than 90% by weight) | 5 (herbicidal effect of not less than 90% by weight) | 0 (herbicidal effect of not less than 0% by weight and less than 10% by weight) | 0 (herbicidal effect of not less than 0% by weight and less than 10% by weight) | 5 (herbicidal effect of not less than 90% by weight) | 5 (herbicidal effect of not less than 90% by weight) | 5 (herbicidal effect of not less than 90% by weight) | 5 (herbicidal effect of not less than 90% by weight) | 0 (herbicidal effect of not less than 0% by weight and less than 10% by weight) | 0 (herbicidal effect of not less than 0% by weight and less than 10% by weight) | 5 (herbicidal effect of not less than 90% by weight) | 5 (herbicidal effect of not less than 90% by weight) | 5 (herbicidal effect of not less than 90% by weight) | 5 (herbicidal effect of not less than 90% by weight) | 0 (herbicidal effect of not less than 0% by weight and less than 10% by weight)
3 | COC=C(Cn1nc(-c2cccc(Cl)c2Cl)cc1C)C(=O)OC [Compound 6] | 4 (herbicidal effect of not less than 70% by weight and less than 90% by weight) | 4 (herbicidal effect of not less than 70% by weight and less than 90% by weight) | 4 (herbicidal effect of not less than 70% by weight and less than 90% by weight) | 4 (herbicidal effect of not less than 70% by weight and less than 90% by weight) | 0 (herbicidal effect of not less than 0% by weight and less than 10% by weight) | 0 (herbicidal effect of not less than 0% by weight and less than 10% by weight) | 4 (herbicidal effect of not less than 70% by weight and less than 90% by weight) | 4 (herbicidal effect of not less than 70% by weight and less than 90% by weight) | 4 (herbicidal effect of not less than 70% by weight and less than 90% by weight) | 4 (herbicidal effect of not less than 70% by weight and less than 90% by weight) | 0 (herbicidal effect of not less than 0% by weight and less than 10% by weight) | 0 (herbicidal effect of not less than 0% by weight and less than 10% by weight) | 4 (herbicidal effect of not less than 70% by weight and less than 90% by weight) | 3 (herbicidal effect of not less than 50% by weight and less than 70% by weight) | 3 (herbicidal effect of not less than 50% by weight and less than 70% by weight) | 3 (herbicidal effect of not less than 50% by weight and less than 70% by weight) | 0 (herbicidal effect of not less than 0% by weight and less than 10% by weight)
4 | COC=C(Cn1cc(C)c(-c2ccccc2)n1)C(=O)OC [Compound 13] | 5 (herbicidal effect of not less than 90% by weight) | 5 (herbicidal effect of not less than 90% by weight) | 5 (herbicidal effect of not less than 90% by weight) | 5 (herbicidal effect of not less than 90% by weight) | 0 (herbicidal effect of not less than 0% by weight and less than 10% by weight) | 0 (herbicidal effect of not less than 0% by weight and less than 10% by weight) | 5 (herbicidal effect of not less than 90% by weight) | 5 (herbicidal effect of not less than 90% by weight) | 5 (herbicidal effect of not less than 90% by weight) | 5 (herbicidal effect of not less than 90% by weight) | 0 (herbicidal effect of not less than 0% by weight and less than 10% by weight) | 0 (herbicidal effect of not less than 0% by weight and less than 10% by weight) | 5 (herbicidal effect of not less than 90% by weight) | 5 (herbicidal effect of not less than 90% by weight) | 5 (herbicidal effect of not less than 90% by weight) | 5 (herbicidal effect of not less than 90% by weight) | 0 (herbicidal effect of not less than 0% by weight and less than 10% by weight)
